This passage reports IC50 results from patent US20210261512A1, “NOVEL COMPOUNDS” (INFLAZOME LIMITED, priority 2018, published 2021).

The target in this experiment is NLRP3 (Homo sapiens, UniProt Q96P20). Description: THP-1 cells pyroptosis assay. Set-up: Seed THP-1 cells (25,000 cells/well) containing 1.0 μg/ml LPS; host or cells: THP-1. The experiment is classed as cell-based. The note with it: LPS 1.0 μg/ml, nigericin 5 μM, resazurin readout, 10 μM top dose (Example 2: top dose of 30 μM). A digest of the protocol:
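THP-1 cells (25,000/well) primed with 1 μg/ml LPS in serum-free RPMI, treated with compound (8-point dilution, 10 μM top unless stated; 0.1% DMSO) 3 h at 37°C, then nigericin 5 μM 1 h. Viability read by resazurin (100 μM, 1-2 h) fluorescence; IC50 from 4-parameter fit.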
In general terms: Resazurin is reduced to fluorescent resorufin, in cell work by metabolically active cells.

Chain of NLRP3 (Q96P20 whole entry): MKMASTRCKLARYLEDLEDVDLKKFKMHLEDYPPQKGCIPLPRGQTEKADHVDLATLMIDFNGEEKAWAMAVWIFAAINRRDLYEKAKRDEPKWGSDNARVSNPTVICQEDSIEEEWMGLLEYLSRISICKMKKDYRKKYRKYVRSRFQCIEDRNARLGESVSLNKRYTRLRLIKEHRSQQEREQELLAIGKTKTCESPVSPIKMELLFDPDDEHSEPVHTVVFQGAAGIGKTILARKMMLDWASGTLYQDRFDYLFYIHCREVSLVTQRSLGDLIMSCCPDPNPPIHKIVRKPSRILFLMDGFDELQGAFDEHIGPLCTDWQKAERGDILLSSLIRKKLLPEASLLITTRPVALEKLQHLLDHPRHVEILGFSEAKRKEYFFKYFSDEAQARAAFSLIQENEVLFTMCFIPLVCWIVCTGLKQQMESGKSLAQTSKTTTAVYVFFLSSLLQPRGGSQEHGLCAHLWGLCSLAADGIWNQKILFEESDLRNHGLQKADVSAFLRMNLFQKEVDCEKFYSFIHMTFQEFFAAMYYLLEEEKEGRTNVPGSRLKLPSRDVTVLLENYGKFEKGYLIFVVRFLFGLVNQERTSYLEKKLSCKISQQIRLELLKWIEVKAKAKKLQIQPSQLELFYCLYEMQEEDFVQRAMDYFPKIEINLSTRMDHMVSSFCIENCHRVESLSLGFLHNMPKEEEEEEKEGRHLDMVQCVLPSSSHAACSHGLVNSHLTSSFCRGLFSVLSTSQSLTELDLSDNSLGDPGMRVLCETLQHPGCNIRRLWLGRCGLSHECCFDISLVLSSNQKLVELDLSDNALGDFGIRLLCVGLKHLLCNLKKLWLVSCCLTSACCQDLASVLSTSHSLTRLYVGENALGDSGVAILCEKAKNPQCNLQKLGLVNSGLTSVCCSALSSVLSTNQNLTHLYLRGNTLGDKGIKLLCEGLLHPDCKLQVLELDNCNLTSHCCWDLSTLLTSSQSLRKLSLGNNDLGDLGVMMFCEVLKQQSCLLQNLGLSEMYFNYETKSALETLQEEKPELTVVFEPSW

Regarding `CN1CC(CNS(=O)(=O)c2nnc(Nc3c4c(cc5c3CCC5)CCC4)[nH]2)C1` [Example 88, 5-((1,2,3,5,6,7-hexahydro-s-indacen-4-yl)amino)-N-((1-methazetidin-3-yl)methyl)-4H-1,2,4-triazole-3-sulfonamide], the IC50 – broadly, the point on the concentration scale where inhibition reaches its midpoint – was at most 5 µM.

Compound `CN1CCN(C2CCN(S(=O)(=O)c3nnc(Nc4c5c(cc6c4CCC6)CCC5)[nH]3)CC2)CC1` [Example 135, N-(1,2,3,5,6,7-hexahydro-s-indacen-4-yl)-5-((4-(4-methylpiperazin-1-yl)piperidin-1-yl)sulfonyl)-4H-1,2,4-triazol-3-amine] displayed an IC50 of at most 5 µM.

Take `O=S(=O)(c1ccn(C2CC2)n1)c1nnc(Nc2c3c(cc4c2CCC4)CCC3)[nH]1` [Example 354, 5-((1-cyclopropyl-1H-pyrazol-3-yl)sulfonyl)-N-(1,2,3,5,6,7-hexahydro-s-indacen-4-yl)-4H-1,2,4-triazol-3-amine]: the half-inhibitory concentration (IC50) was at most 0.5 µM.

`O=S(=O)(c1nnc(Nc2c3c(cc4c2CCC4)CCC3)[nH]1)N1CC2(CCNC2)C1` [Example 265, 5-((2,6-diazaspiro[3.4]octan-2-yl)sulfonyl)-N-(1,2,3,5,6,7-hexahydro-s-indacen-4-yl)-4H-1,2,4-triazol-3-amine] gave an IC50 of at most 5 µM.

Turning to `O=S(=O)(c1nnc(Nc2c3c(cc4c2CCC4)CCC3)[nH]1)N1CCn2cncc2C1` [Example 281, 5-((5,6-dihydroimidazo[1,5-a]pyrazin-7 (8H)-yl)sulfonyl)-N-(1,2,3,5,6,7-hexahydro-s-indacen-4-yl)-4H-1,2,4-triazol-3-amine], the IC50 is at most 10 µM.

For the compound `CC(=O)NCCN(C)S(=O)(=O)c1nnc(Nc2c3c(cc4c2CCC4)CCC3)[nH]1` [Example 107, N-(2-(5-((1,2,3,5,6,7-hexahydro-s-indacen-4-yl)amino)-N-methyl-4H-1,2,4-triazole-3-sulfonamido)ethyl)acetamide], the IC50 was at most 10 µM.

On to `Cc1ccc(C(C)C)c(Nc2nnc(S(=O)(=O)N3CCC(N(C)C)CC3)[nH]2)c1` [Example 206, 1-((5-((2-isopropyl-5-methylphenyl)amino)-4H-1,2,4-triazol-3-yl)sulfonyl)-N,N-dimethylpiperidin-4-amine], for which the concentration for half-maximal inhibition (IC50) was at most 10 µM.

Consider `O=S(=O)(Cc1cccnc1)c1nnc(Nc2c3c(cc4c2CCC4)CCC3)[nH]1` [Example 73, N-(1,2,3,5,6,7-hexahydro-s-indacen-4-yl)-3-((pyridin-3-ylmethyl)sulfonyl)-1H-1,2,4-triazol-5-amine], for which the IC50 is at most 10 µM.

In turn, `O=S(=O)(NCc1ccccn1)c1nnc(Nc2c3c(cc4c2CCC4)CCC3)[nH]1` [Example 98, 5-((1,2,3,5,6,7-hexahydro-s-indacen-4-yl)amino)-N-(pyridin-2-ylmethyl)-4H-1,2,4-triazole-3-sulfonamide] displayed an IC50 of at most 5 µM.

Consider `O=S(=O)(c1nnc(Nc2c3c(cc4c2CCC4)CCC3)[nH]1)N1CC(c2ccccn2)C1` [Example 285, N-(1,2,3,5,6,7-hexahydro-s-indacen-4-yl)-5-((3-(pyridin-2-yl)azetidin-1-yl)sulfonyl)-4H-1,2,4-triazol-3-amine], for which the 50% inhibitory concentration (IC50) is at most 5 µM.

Consider `Cc1cc2c(c(Nc3nnc(S(C)(=O)=O)[nH]3)c1-c1ccnc(O[C@H]3CC[C@H](N(C)C)CC3)c1)CCC2` [Example 365, N-(5-(2-(((1r,4r)-4-(dimethylamino)cyclohexyl)oxy)pyridin-4-yl)-6-methyl-2,3-dihydro-1H-inden-4-yl)-5-(methylsulfonyl)-4H-1,2,4-triazol-3-amine], for which the IC50 was at most 5 µM.

`CS(=O)(=O)c1nnc(Nc2c(-c3ccnc(OC4CCOCC4)c3)ccc3c2CCC3)[nH]1` [Example 342, 5-(methylsulfonyl)-N-(5-(2-((tetrahydro-2H-pyran-4-yl)oxy)pyridin-4-yl)-2,3-dihydro-1H-inden-4-yl)-4H-1,2,4-triazol-3-amine] showed a concentration for half-maximal inhibition (IC50) of at most 5 µM.

In turn, `O=S(=O)(c1ccnnc1)c1n[nH]c(Nc2c3c(cc4c2CCC4)CCC3)n1` [Example 168, N-(1,2,3,5,6,7-hexahydro-s-indacen-4-yl)-3-(pyridazin-4-ylsulfonyl)-1H-1,2,4-triazol-5-amine] yielded an IC50 of at most 5 µM.

In the case of `Cn1cc(C#N)c(S(=O)(=O)c2nnc(Nc3c4c(cc5c3CCC5)CCC4)[nH]2)n1` [Example 351, 3-((5-((1,2,3,5,6,7-hexahydro-s-indacen-4-yl)amino)-4H-1,2,4-triazol-3-yl)sulfonyl)-1-methyl-1H-pyrazole-4-carbonitrile], the IC50 is at most 5 µM.

As for `COCC(C)Oc1cc(-c2c(C)cc3c(c2Nc2nnc(S(C)(=O)=O)[nH]2)CCC3)ccn1` (stereo not drawn) [Example 363, N-(5-(2-((1-methoxypropan-2-yl)oxy)-pyridin-4-yl)-6-methyl-2,3-dihydro-1H-inden-4-yl)-5-(methylsulfonyl)-4H-1,2,4-triazol-3-amine], the half-inhibitory concentration (IC50) was at most 5 µM.

`Cc1cc2c(c(Nc3nnc(S(C)(=O)=O)[nH]3)c1-c1ccnc(OC3CCNCC3)c1)CCC2` [Example 368, N-(6-methyl-5-(2-(piperidin-4-yloxy)pyridin-4-yl)-2,3-dihydro-1H-inden-4-yl)-5-(methylsulfonyl)-4H-1,2,4-triazol-3-amine] gave an IC50 of at most 5 µM.

As to `O=S(=O)(c1nnc(Nc2c3c(cc4c2CCC4)CCC3)[nH]1)N1CCC2(CCOC2)C1` (stereo not drawn) [Example 314, 5-(2-oxa-7-azaspiro[4.4]nonan-7-ylsulfonyl)-N-(1,2,3,5,6,7-hexahydro-s-indacen-4-yl)-4H-1,2,4-triazol-3-amine], the concentration for half-maximal inhibition (IC50) is at most 5 µM.

Compound `CS(=O)(=O)c1nnc(Nc2c(-c3ccnc(OCc4ccccc4)c3)ccc3c2CCC3)[nH]1` [Example 234, N-(5-(2-(benzyloxy)pyridin-4-yl)-2,3-dihydro-1H-inden-4-yl)-5-(methylsulfonyl)-4H-1,2,4-triazol-3-amine] showed an IC50 of at most 5 µM.

`CC(C)c1cc(F)cc(-c2ccnc(OC3CCN(C)CC3)c2)c1Nc1nnc(S(C)(=O)=O)[nH]1` [Example 369, N-(4-fluoro-2-isopropyl-6-(2-((1-methylpiperidin-4-yl)oxy)pyridin-4-yl)phenyl)-5-(methylsulfonyl)-4H-1,2,4-triazol-3-amine] had a 50% inhibitory concentration (IC50) of at most 5 µM.

As to `O=S(=O)(c1cncnc1)c1n[nH]c(Nc2c3c(cc4c2CCC4)CCC3)n1` [Example 169, N-(1,2,3,5,6,7-hexahydro-s-indacen-4-yl)-3-(pyrimidin-5-ylsulfonyl)-1H-1,2,4-triazol-5-amine], the IC50 was at most 10 µM.

The compound `COCC1CCN(S(=O)(=O)c2nnc(Nc3c4c(cc5c3CCC5)CCC4)[nH]2)C1` (stereo not drawn) [Example 283, N-(1,2,3,5,6,7-hexahydro-s-indacen-4-yl)-5-((3-(methoxymethyl)pyrrolidin-1-yl)sulfonyl)-4H-1,2,4-triazol-3-amine] registered an IC50 of at most 5 µM.

Consider `CC(c1cc(S(=O)(=O)c2nnc(Nc3c4c(cc5c3CCC5)CCC4)[nH]2)nn1C(C)C)N(C)C` (stereo not drawn) [Example 8, 5-((5-(1-(dimethylamino)ethyl)-1-isopropyl-1H-pyrazol-3-yl)sulfonyl)-N-(1,2,3,5,6,7-hexahydro-s-indacen-4-yl)-4H-1,2,4-triazol-3-amine], for which the IC50 is at most 1 µM.

With `COc1cccc(S(=O)(=O)c2nnc(Nc3c4c(cc5c3CCC5)CCC4)[nH]2)c1` [Example 175, N-(1,2,3,5,6,7-hexahydro-s-indacen-4-yl)-5-((3-methoxyphenyl)sulfonyl)-4H-1,2,4-triazol-3-amine], the half-maximal inhibitory concentration (IC50) is at most 5 µM.

`CN1CCCC(COc2cc(-c3ccc4c(c3Nc3nnc(S(C)(=O)=O)[nH]3)CCC4)ccn2)C1` (stereo not drawn) [Example 359, N-(5-(2-((1-methylpiperidin-3-yl)methoxy)pyridin-4-yl)-2,3-dihydro-1H-inden-4-yl)-5-(methylsulfonyl)-4H-1,2,4-triazol-3-amine] yielded an IC50 of at most 5 µM.

As to `CN1CCC(COc2cc(-c3ccc4c(c3Nc3nnc(S(C)(=O)=O)[nH]3)CCC4)ccn2)C1` (stereo not drawn) [Example 358, N-(5-(2-((1-methylpyrrolidin-3-yl)methoxy)pyridin-4-yl)-2,3-dihydro-1H-inden-4-yl)-5-(methylsulfonyl)-4H-1,2,4-triazol-3-amine], the half-inhibitory concentration (IC50) was at most 10 µM.

In turn, `CN1C[C@H]2[C@@H]1CCN2S(=O)(=O)c1nnc(Nc2c3c(cc4c2CCC4)CCC3)[nH]1` [Example 269, N-(1,2,3,5,6,7-hexahydro-s-indacen-4-yl)-5-(((1S,5S)-6-methyl-2,6-diazabicyclo[3.2.0]heptan-2-yl)sulfonyl)-4H-1,2,4-triazol-3-amine] yielded an IC50 of at most 10 µM.

`COc1cc(-c2cc(C#N)c3c(c2Nc2nnc(S(=O)(=O)N4CCC(N(C)C)CC4)[nH]2)CCC3)ccn1` [Example 230, 7-((5-((4-(dimethylamino)piperidin-1-yl)sulfonyl)-4H-1,2,4-triazol-3-yl)amino)-6-(2-methoxypyridin-4-yl)-2,3-dihydro-1H-indene-4-carbonitrile]: the IC50 was at most 5 µM.

Regarding `CC(C)n1ccc(S(=O)(=O)c2nnc(Cc3c4c(cc5c3CCC5)CCC4)[nH]2)n1` [Example 30, 3-((1,2,3,5,6,7-hexahydro-s-indacen-4-yl)methyl)-5-((1-isopropyl-1H-pyrazol-3-yl)sulfonyl)-4H-1,2,4-triazole], the concentration for half-maximal inhibition (IC50) is at most 10 µM.

The compound `O=S(=O)(c1nnc(Nc2c3c(cc4c2CCC4)CCC3)[nH]1)N1CCC(F)(F)CC1` [Example 297, 5-((4,4-difluoropiperidin-1-yl)sulfonyl)-N-(1,2,3,5,6,7-hexahydro-s-indacen-4-yl)-4H-1,2,4-triazol-3-amine] displayed an IC50 of at most 10 µM.

As to `O=S(=O)(CC1CCCO1)c1nnc(Nc2c3c(cc4c2CCC4)CCC3)[nH]1` (stereo not drawn) [Example 67, N-(1,2,3,5,6,7-hexahydro-s-indacen-4-yl)-3-(((tetrahydrofuran-2-yl)methyl)sulfonyl)-1H-1,2,4-triazol-5-amine], the half-maximal inhibitory concentration (IC50) was at most 10 µM.
